Assay results taken from ChEMBL document CHEMBL3045118, “Synthesis and biological activities of new Mannich bases of chlorokojic acid derivatives” (Med Chem Res, 2011).
In brackets after ≈: the same amount, converted by molar mass. Activity calls are given as the source filed them. The calls are words filed in the database; no cut-off is given here.

Assays:
Candida parapsilosis = test: Antifungal activity against Candida parapsilosis ATCC 22019 by microdilution method; type: functional
Escherichia coli [1] = test: Antibacterial activity against ESbetaL positive trimethoprim-sulfamethoxazole, cefepime, tazobactam-resistant Escherichia coli isolate by microdilution method; type: functional
Pseudomonas aeruginosa [2] = test: Antibacterial activity against trimethoprim-sulfamethoxazole, tazobactam-resistant Pseudomonas aeruginosa by microdilution method; type: functional
Klebsiella pneumoniae [3] = test: Antibacterial activity against Klebsiella pneumoniae RSKK 574 by microdilution method; type: functional
Proteus mirabilis [4] = test: Antibacterial activity against Proteus mirabilis ATCC 7002 by microdilution method; type: functional
Enterococcus faecalis [5] = test: Antibacterial activity against Enterococcus faecalis ATCC 29212 by microdilution method; type: functional
Human alphaherpesvirus 1 [6] = test: Antiviral activity against Human herpesvirus 1 infected bovine MDBK cells assessed as concentration required to cause maximum inhibition of virus-induced cytopathic effect; type: functional
Enterococcus faecalis [7] = test: Antibacterial activity against cephalosporins and beta-lactam-resistant Enterococcus faecalis by microdilution method; type: functional
Bacillus subtilis [8] = test: Antibacterial activity against Bacillus subtilis ATCC 6633 by microdilution method; type: functional
Human respirovirus 3 [9] = test: Antiviral activity against Human parainfluenza virus 3 infected African green monkey Vero cells assessed as concentration required to cause maximum inhibition of virus-induced cytopathic effect; type: functional
Human alphaherpesvirus 1 [10] = test: Antiviral activity against Human herpesvirus 1 infected bovine MDBK cells assessed as concentration required to cause minimum inhibition of virus-induced cytopathic effect; type: functional
Staphylococcus aureus [11] = test: Antibacterial activity against Staphylococcus aureus ATCC 25923 by microdilution method; type: functional
Staphylococcus aureus [12] = test: Antibacterial activity against oxacillin, gentamicin, aztreonam, trimethoprim-sulfamethoxazole-resistant Staphylococcus aureus by microdilution method; type: functional
Pseudomonas aeruginosa [13] = test: Antibacterial activity against Pseudomonas aeruginosa ATCC 10145 by microdilution method; type: functional
[14] = Cytotoxicity against Chlorocebus aethiops (African green monkey) Vero cells assessed as maximum non-toxic concentration; type: cell-based; settings: chlorocebus sabaeus, read-out: MNCC
Candida albicans = test: Antifungal activity against Candida albicans ATCC 10231 by microdilution method; type: functional
Escherichia coli [15] = test: Antibacterial activity against Escherichia coli ATCC 35218 by microdilution method; type: functional
Klebsiella pneumoniae [16] = test: Antibacterial activity against ESbetaL positive trimethoprim-sulfamethoxazole, amoxicillin clavulonat, cefriaxon, cephepim, aztreonam-resistant Klebsiella pneumoniae by microdilution method; type: functional
Human respirovirus 3 [17] = test: Antiviral activity against Human parainfluenza virus 3 infected African green monkey Vero cells assessed as concentration required to cause minimum inhibition of virus-induced cytopathic effect; type: functional
Acinetobacter baumannii [18] = test: Antibacterial activity against trimethoprim-sulfamethoxazole, cefepime-resistant Acinetobacter baumannii by microdilution method; type: functional
Proteus mirabilis [19] = test: Antibacterial activity against ESbetaL positive rimethoprim-sulfamethoxazole, cefepime, tazobactam-resistant Proteus mirabilis by microdilution method; type: functional
Bacillus subtilis [20] = test: Antibacterial activity against ceftriaxon-resistant Bacillus subtilis by microdilution method; type: functional
[21] = Cytotoxicity against Bos taurus (bovine) MDBK cells assessed as maximum non-toxic concentration; type: cell-based; settings: cattle, read-out: MNCC
Acinetobacter baumannii [22] = test: Antibacterial activity against Acinetobacter baumannii RSKK 02026 by microdilution method; type: functional

| Compound | MIC (Candida parapsilosis; Lodderomyces parapsilosis) | MIC (Escherichia coli [1]) | MIC (Pseudomonas aeruginosa [2]) | MIC (Klebsiella pneumoniae [3]) | MIC (Proteus mirabilis [4]) | MIC (Enterococcus faecalis [5]) | Activity (Human alphaherpesvirus 1 [6]) | MIC (Enterococcus faecalis [7]) | MIC (Bacillus subtilis [8]) | MIC (Staphylococcus aureus [11]) | MIC (Staphylococcus aureus [12]) | MIC (Pseudomonas aeruginosa [13]) | MIC (Candida albicans) | MIC (Escherichia coli [15]) | MIC (Klebsiella pneumoniae [16]) | MIC (Acinetobacter baumannii [18]) | MIC (Proteus mirabilis [19]) | MIC (Bacillus subtilis [20]) | MIC (Acinetobacter baumannii [22]) | MIC (Candida parapsilosis) | other results |
| --- | --- | --- | --- | --- | --- | --- | --- | --- | --- | --- | --- | --- | --- | --- | --- | --- | --- | --- | --- | --- | --- |
| O=c1cc(CCl)oc(CN2CCN(c3ccc(C(F)(F)F)cc3)CC2)c1O | 8 µg/mL (≈ 19.9 µM) | 64 µg/mL | 64 µg/mL | 32 µg/mL (≈ 79.4 µM) | 16 µg/mL (≈ 39.7 µM) | 8 µg/mL (≈ 19.9 µM) | 0.8 µg/mL | 32 µg/mL (≈ 79.4 µM) | 8 µg/mL (≈ 19.9 µM) | 16 µg/mL (≈ 39.7 µM) | 64 µg/mL (≈ 159 µM) | 16 µg/mL (≈ 39.7 µM) | 8 µg/mL (≈ 19.9 µM) | 16 µg/mL (≈ 39.7 µM) | 64 µg/mL (≈ 159 µM) | 64 µg/mL (≈ 159 µM) | 64 µg/mL | 64 µg/mL (≈ 159 µM) | 16 µg/mL (≈ 39.7 µM) |  | Activity (Human respirovirus 3 [9]): 0.4 µg/mL; Activity (Human alphaherpesvirus 1 [10]): 0.05 µg/mL; MNTC [14]: 0.4 µg/mL; Activity (Human respirovirus 3 [17]): 0.025 µg/mL; MNTC [21]: 0.8 µg/mL |
| O=c1cc(CCl)oc(CN2CCN(c3ccc(Cl)c(Cl)c3)CC2)c1O | 16 µg/mL (≈ 39.6 µM) | 64 µg/mL | 64 µg/mL | 32 µg/mL (≈ 79.3 µM) | 32 µg/mL (≈ 79.3 µM) | 8 µg/mL (≈ 19.8 µM) | 0.4 µg/mL | 64 µg/mL (≈ 159 µM) | 16 µg/mL (≈ 39.6 µM) | 8 µg/mL (≈ 19.8 µM) | 64 µg/mL (≈ 159 µM) | 16 µg/mL (≈ 39.6 µM) | 16 µg/mL (≈ 39.6 µM) | 64 µg/mL (≈ 159 µM) | 64 µg/mL (≈ 159 µM) | 32 µg/mL (≈ 79.3 µM) | 64 µg/mL | 64 µg/mL (≈ 159 µM) | 64 µg/mL (≈ 159 µM) |  | Activity (Human respirovirus 3 [9]): 0.4 µg/mL; Activity (Human alphaherpesvirus 1 [10]): 0.1 µg/mL; MNTC [14]: 0.4 µg/mL; Activity (Human respirovirus 3 [17]): 0.05 µg/mL; MNTC [21]: 1.6 µg/mL |
| O=c1cc(CCl)oc(CN2CCN(c3ccccc3F)CC2)c1O | 8 µg/mL (≈ 22.7 µM) | 64 µg/mL | 64 µg/mL | 16 µg/mL (≈ 45.4 µM) | 32 µg/mL (≈ 90.7 µM) | 16 µg/mL (≈ 45.4 µM) | 0.8 µg/mL | 32 µg/mL (≈ 90.7 µM) | 8 µg/mL (≈ 22.7 µM) | 16 µg/mL (≈ 45.4 µM) | 64 µg/mL (≈ 181 µM) | 32 µg/mL (≈ 90.7 µM) | 8 µg/mL (≈ 22.7 µM) | 16 µg/mL (≈ 45.4 µM) | 64 µg/mL (≈ 181 µM) | 64 µg/mL (≈ 181 µM) | 64 µg/mL | 16 µg/mL (≈ 45.4 µM) | 32 µg/mL (≈ 90.7 µM) |  | Activity (Human respirovirus 3 [9]): 0.2 µg/mL; Activity (Human alphaherpesvirus 1 [10]): 0.05 µg/mL; MNTC [14]: 0.8 µg/mL; Activity (Human respirovirus 3 [17]): 0.025 µg/mL; MNTC [21]: 0.8 µg/mL |
| Nc1nc2c(ncn2COCCO)c(=O)[nH]1 [ACYCLOVIR] |  |  |  |  |  |  | 1.6 µg/mL |  |  |  |  |  |  |  |  |  |  |  |  |  | Activity (Human alphaherpesvirus 1 [10]): <0.012 µg/mL |
| C[C@H]1COc2c(N3CCN(C)CC3)c(F)cc3c(=O)c(C(=O)O)cn1c23.C[C@H]1COc2c(N3CCN(C)CC3)c(F)cc3c(=O)c(C(=O)O)cn1c23.O [LEVOFLOXACIN] |  |  |  | < 0.12 µg/mL | < 0.12 µg/mL | 0.5 µg/mL |  | 32 µg/mL | inactive | 0.25 µg/mL | 128 µg/mL |  | inactive |  |  | 64 µg/mL | 1 µg/mL | inactive | 0.12 µg/mL | inactive |  |
| CN[C@H](CC(C)C)C(=O)N[C@H]1C(=O)N[C@@H](CC(N)=O)C(=O)N[C@H]2C(=O)N[C@H]3C(=O)N[C@H](C(=O)N[C@H](C(=O)O)c4cc(O)cc(O)c4-c4cc3ccc4O)[C@H](O)c3ccc(c(Cl)c3)Oc3cc2cc(c3O[C@@H]2O[C@H](CO)[C@@H](O)[C@H](O)[C@H]2O[C@H]2C[C@](C)(N)[C@H](O)[C@H](C)O2)Oc2ccc(cc2Cl)[C@H]1O [VANCOMYCIN] |  | inactive | inactive | inactive | inactive | inactive |  | inactive | inactive | 0.12 µg/mL (≈ 0.0828 µM) |  | inactive | inactive | inactive | inactive | inactive | inactive | inactive | inactive | inactive |  |
| CC1(C)S[C@@H]2[C@H](NC(=O)[C@H](N)c3ccccc3)C(=O)N2[C@H]1C(=O)O [AMPICILLIN] |  | > 128 µg/mL | inactive | 2 µg/mL (≈ 5.72 µM) | 2 µg/mL (≈ 5.72 µM) | 0.5 µg/mL (≈ 1.43 µM) |  | > 128 µg/mL | 0.12 µg/mL (≈ 0.343 µM) | < 0.12 µg/mL | > 128 µg/mL | inactive | inactive |  | > 128 µg/mL | > 128 µg/mL | > 128 µg/mL | 0.5 µg/mL (≈ 1.43 µM) | 2 µg/mL (≈ 5.72 µM) | inactive |  |
| GENTAMICIN |  | inactive | inactive | inactive | inactive | inactive |  | inactive | inactive | inactive | inactive | inactive | inactive | inactive | inactive | inactive | inactive | inactive | inactive | inactive |  |
| CC1COc2c(N3CCN(C)CC3)c(F)cc3c(=O)c(C(=O)O)cn1c23 (stereo not given) [OFLOXACIN] |  |  |  | < 0.12 µg/mL | < 0.12 µg/mL | 1 µg/mL (≈ 2.77 µM) |  | 32 µg/mL (≈ 88.6 µM) | inactive | 0.25 µg/mL (≈ 0.692 µM) | 64 µg/mL (≈ 177 µM) |  | inactive |  |  | 64 µg/mL (≈ 177 µM) | 1 µg/mL | inactive | 0.12 µg/mL (≈ 0.332 µM) | inactive |  |
| OC(Cn1cncn1)(Cn1cncn1)c1ccc(F)cc1F [FLUCONAZOLE] | 4 µg/mL (≈ 13.1 µM) |  |  |  |  | inactive |  | inactive | inactive | inactive | inactive |  | 2 µg/mL (≈ 6.53 µM) |  |  |  |  | inactive |  |  |  |
| CC(=O)N1CCN(c2ccc(OCC3COC(Cn4ccnc4)(c4ccc(Cl)cc4Cl)O3)cc2)CC1 (stereo not given) [KETOCONAZOLE] | 1 µg/mL (≈ 1.88 µM) |  |  |  |  | inactive |  | inactive | inactive | inactive | inactive |  | 1 µg/mL (≈ 1.88 µM) |  |  |  |  | inactive |  |  |  |
| CCOC(=O)C1=C[C@@H](OC(CC)CC)[C@H](NC(C)=O)[C@@H](N)C1 [OSELTAMIVIR] |  |  |  |  |  |  |  |  |  |  |  |  |  |  |  |  |  |  |  |  | Activity (Human respirovirus 3 [9]): 1.6 µg/mL; Activity (Human respirovirus 3 [17]): <0.012 µg/mL |
